# Source: article PMC9551036, “A selective and orally bioavailable VHL-recruiting PROTAC achieves SMARCA2 degradation in vivo” (Nature Communications, 2022)
# Values joined by “and” are separate entries in the source; they are usually repeats but may differ in a detail not shown here. Equal values may be shown once. Read-outs that look alike come from different tables or passages of the source.
# Key:
# NCI-H1568 cells = test: Cell viability assay (CellTiter Glo) in NCI-H1568; assay type: cell-based, human; settings: for IC50: CellTiter Glo, individual replicates, read-out: NCI-H1568 (18h) CTG;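 on % Viability: percent of DMSO-treated control cells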
# Protocol: 500–2000 cells were seeded in white, clear bottom 96-well plates (Corning or Perkin Elmer) in 180–200 µl medium per well. The next day, compounds were added using a digital dispenser and a T0 sample was measured for reference. […], and viability (luminescence) was measured using CellTiter Glo or CellTiter Glo 2.0 (Promega) according to manufacturer’s instructions after equilibrating cells and reagents at room temperature and 10–20 min incubation time while shaking.
# [1] = biological target: VCB: PROTAC: SMARCA2^BD ternary complex (Homo sapiens, UniProt P40337+P51531); test: TR-FRET ternary complex affinity and cooperativity, SMARCA2; assay type: binding; design: P51531-2, residues 1373-1493 with additional N-terminal SM residues; GST (TEV site) (N); His6 (TEV site) (N, cleaved yes); made in house; host or cells: SMARCA2^BD: Escherichia coli BL21(DE3)
# PBRM1BD5 = biological target: T1, PBRM1BD5 (Homo sapiens, UniProt Q86U86); test: TR-FRET ternary complex affinity and cooperativity, PBRM1; assay type: binding
# T1 construct: GST (TEV site) (N); His6 (TEV site) (N, cleaved yes); made in house; host or cells: PBRM1^BD5: Escherichia coli BL21(DE3)
# [2] = biological target: T2, VCB: PROTAC: SMARCA2^BD ternary complex (Homo sapiens, UniProt P51531); test: TR-FRET ternary complex affinity and cooperativity, SMARCA2; assay type: binding
# T2 construct: P51531-2, residues 1373-1493 with additional N-terminal SM residues; GST (TEV site) (N); His6 (TEV site) (N, cleaved yes); made in house; host or cells: SMARCA2^BD: Escherichia coli BL21(DE3)
# [3] = biological target: T3, (Homo sapiens, UniProt P51532); test: TR-FRET ternary complex affinity and cooperativity, SMARCA4; assay type: binding
# T3 construct: P51532, residues 1448–1569 with additional N-terminal SM residues; GST (TEV site) (N); His6 (TEV site) (N, cleaved yes); made in house; host or cells: SMARCA4^BD: Escherichia coli BL21(DE3)
# SMARCA2 = SMARCA2 (Homo sapiens, UniProt P51531); test: Imaging-based SMARCA2 protein assay in RKO cells; assay type: cell-based; design: endogenous in cells; host or cells: RKO, NCI-H1568, A549, HCT116, LU99, HCC-364, HCT-15, HCC4006, SK-N-AS; settings: individual replicates
# Protocol: 1250 cells per well in 60 µl medium were plated in flat bottom, poly-lysin coated 384-well plates (CellCarrier Ultra, Perkin Elmer). The next day, test compounds (10 µl of serial dilutions) and DMSO controls were diluted in DMEM medium such that the final DMSO content was <1% or were added using an ultrasound dispensing system. 4 wells were reserved for a background measurement. […] After aspirating the fixing solution, the cells were washed once with 25 µl PBS. 25 µl of blocking buffer (10% goat serum in PBS) was added and cells were incubated for 30 min, then washed once with PBS. […] Cells were again washed once with PBS. […] The cell layer was then washed once with 25 µl PBS, the wells were filled with 25 µl PBS and the plates were sealed with an adhesive sheet. They were then imaged on the Opera Phoenix (mean intensity in the nucleus). […] EC50 values were computed using a 4-parametric logistic model.
# PBRM1 BD = biological target: T4, PBRM1 BD (Homo sapiens, UniProt Q86U86); test: TR-FRET binary and ternary (PROTAC + VCB) affinity, PBRM1 bromodomain; assay type: binding; settings: individual replicates
# T4 construct: GST (TEV site) (N); made in house; host or cells: Escherichia coli BL21(DE3)
# [4] = biological target: VCB: PROTAC: SMARCA4^BD ternary complex (Homo sapiens, UniProt P40337+P51532); test: TR-FRET ternary complex affinity and cooperativity, SMARCA4; assay type: binding; design: P51532, residues 1448–1569 with additional N-terminal SM residues; GST (TEV site) (N); His6 (TEV site) (N, cleaved yes); made in house; host or cells: SMARCA4^BD: Escherichia coli BL21(DE3)
# [5] = PROTAC + VCB, individual replicates, read-out: Ternary SMARCA2 BD EC50 (PROTAC + VCB)
# [6] = TR-FRET competition for SMARCA2BD, + VCB, mean ± SD, read-out: TR-FRET Ternary SMARCA2BD EC50 (PROTAC + VCB)
# [7] = TR-FRET competition for SMARCA2BD, without VCB, mean ± SD, read-out: TR-FRET SMARCA2BD EC50
# [8] = binary, PROTAC alone, individual replicates, read-out: SMARCA2 BD EC50
# [9] = TR-FRET competition for SMARCA4BD, without VCB, mean ± SD, read-out: TR-FRET SMARCA4BD EC50
# [10] = binary, PROTAC alone, individual replicates, read-out: SMARCA4 BD EC50
# [11] = 4h, read-out: RKO (4h) SMARCA2 DC50
# [12] = 18h, read-out: RKO (18h) SMARCA2 DC50
# [13] = PROTAC + VCB, individual replicates, read-out: Ternary SMARCA4 BD EC50 (PROTAC + VCB)
# [14] = TR-FRET competition for SMARCA4BD, + VCB, mean ± SD, read-out: TR-FRET Ternary SMARCA4BD EC50 (PROTAC + VCB)
# [15] = Homo sapiens, NCI-H1568, […], read-out: EC50 cell proliferation (CellTiter Glo)
# [16] = TR-FRET competition for PBRM1BD5, without VCB, mean ± SD, read-out: TR-FRET PBRM1BD EC50
# [17] = PROTAC + VCB, read-out: Ternary PBRM1 BD EC50 (PROTAC + VCB)
# [18] = binary, PROTAC alone, read-out: PBRM1 EC50
# VCB: PROTAC: SMARCA2^BD ternary complex (Homo sapiens, UniProt P40337+P51531), sequence (P51531 with tags, fused parts or gaps isoform P51531-2): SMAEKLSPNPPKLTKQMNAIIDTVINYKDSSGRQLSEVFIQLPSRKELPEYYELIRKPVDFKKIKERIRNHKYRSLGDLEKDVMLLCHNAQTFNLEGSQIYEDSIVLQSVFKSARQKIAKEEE
# VCB: PROTAC: SMARCA2^BD ternary complex (Homo sapiens, UniProt P40337+P51531), sequence (P40337 54-213): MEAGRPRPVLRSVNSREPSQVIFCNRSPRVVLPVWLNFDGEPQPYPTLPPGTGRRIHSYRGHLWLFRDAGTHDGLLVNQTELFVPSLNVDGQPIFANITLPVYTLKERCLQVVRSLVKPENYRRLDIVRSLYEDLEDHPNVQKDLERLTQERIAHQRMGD
# VCB: PROTAC: SMARCA2^BD ternary complex (Homo sapiens, UniProt P40337+P51531), sequence (Q15369 17-112 partner): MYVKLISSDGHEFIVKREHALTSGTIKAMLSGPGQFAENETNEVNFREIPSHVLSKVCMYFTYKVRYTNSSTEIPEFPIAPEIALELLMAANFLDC
# VCB: PROTAC: SMARCA2^BD ternary complex (Homo sapiens, UniProt P40337+P51531), sequence (Q15370 1-104 partner): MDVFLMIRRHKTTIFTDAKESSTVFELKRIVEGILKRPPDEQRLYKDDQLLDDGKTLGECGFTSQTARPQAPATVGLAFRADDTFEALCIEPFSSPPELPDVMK
# T2 sequence (P51531 with tags, fused parts or gaps isoform P51531-2): as the sequence (P51531 with tags, fused parts or gaps isoform P51531-2) above
# T1 sequence (Q86U86 645-766): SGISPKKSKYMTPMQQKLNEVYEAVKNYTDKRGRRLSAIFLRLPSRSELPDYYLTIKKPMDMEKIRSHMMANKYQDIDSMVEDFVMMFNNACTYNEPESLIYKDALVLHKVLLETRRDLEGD
# SMARCA2, sequence (P51531 whole entry): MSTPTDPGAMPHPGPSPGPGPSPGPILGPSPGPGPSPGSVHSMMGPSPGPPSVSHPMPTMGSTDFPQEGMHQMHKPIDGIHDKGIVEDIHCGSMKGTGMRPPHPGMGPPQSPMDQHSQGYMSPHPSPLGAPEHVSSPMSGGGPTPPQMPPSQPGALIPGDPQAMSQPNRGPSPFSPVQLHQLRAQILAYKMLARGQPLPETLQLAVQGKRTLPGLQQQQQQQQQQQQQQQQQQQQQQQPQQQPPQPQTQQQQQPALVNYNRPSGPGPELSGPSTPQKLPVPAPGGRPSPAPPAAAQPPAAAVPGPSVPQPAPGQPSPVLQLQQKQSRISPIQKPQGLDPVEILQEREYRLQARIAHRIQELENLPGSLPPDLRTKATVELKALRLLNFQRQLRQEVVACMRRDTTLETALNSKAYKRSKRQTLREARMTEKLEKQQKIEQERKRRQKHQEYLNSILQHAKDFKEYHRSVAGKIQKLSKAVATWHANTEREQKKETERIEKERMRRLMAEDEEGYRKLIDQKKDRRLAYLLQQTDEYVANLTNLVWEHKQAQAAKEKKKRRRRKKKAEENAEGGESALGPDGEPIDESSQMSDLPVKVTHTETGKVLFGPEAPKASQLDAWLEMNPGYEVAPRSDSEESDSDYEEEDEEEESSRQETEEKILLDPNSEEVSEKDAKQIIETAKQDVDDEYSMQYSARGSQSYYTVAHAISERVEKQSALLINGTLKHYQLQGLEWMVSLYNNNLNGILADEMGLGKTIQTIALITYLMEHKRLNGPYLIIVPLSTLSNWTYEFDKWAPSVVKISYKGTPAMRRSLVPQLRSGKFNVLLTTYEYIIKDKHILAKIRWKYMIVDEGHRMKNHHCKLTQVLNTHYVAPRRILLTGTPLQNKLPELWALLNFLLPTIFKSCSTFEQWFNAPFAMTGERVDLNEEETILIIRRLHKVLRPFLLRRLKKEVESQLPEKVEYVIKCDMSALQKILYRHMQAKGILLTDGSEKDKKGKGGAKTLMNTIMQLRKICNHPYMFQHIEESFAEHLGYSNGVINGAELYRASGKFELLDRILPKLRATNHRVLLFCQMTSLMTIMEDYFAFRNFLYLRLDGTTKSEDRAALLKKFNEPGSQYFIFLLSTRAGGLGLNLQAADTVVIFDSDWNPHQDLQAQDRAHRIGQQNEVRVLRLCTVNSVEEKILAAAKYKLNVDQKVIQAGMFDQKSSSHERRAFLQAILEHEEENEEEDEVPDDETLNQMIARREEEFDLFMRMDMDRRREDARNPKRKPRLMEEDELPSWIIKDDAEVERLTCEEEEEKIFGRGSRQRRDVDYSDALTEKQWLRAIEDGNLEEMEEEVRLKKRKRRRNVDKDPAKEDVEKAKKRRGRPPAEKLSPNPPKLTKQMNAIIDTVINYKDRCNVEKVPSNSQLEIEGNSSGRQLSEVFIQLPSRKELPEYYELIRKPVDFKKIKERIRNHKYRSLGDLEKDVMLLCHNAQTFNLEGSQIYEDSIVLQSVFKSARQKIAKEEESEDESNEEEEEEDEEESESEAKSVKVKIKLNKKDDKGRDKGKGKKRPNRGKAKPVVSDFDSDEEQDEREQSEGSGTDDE
# VCB: PROTAC: SMARCA4^BD ternary complex, sequence (P51532 1448-1569): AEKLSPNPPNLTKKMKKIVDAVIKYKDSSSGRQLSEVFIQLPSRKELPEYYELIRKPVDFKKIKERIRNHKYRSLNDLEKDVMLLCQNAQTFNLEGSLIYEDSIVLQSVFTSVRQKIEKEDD
# VCB: PROTAC: SMARCA4^BD ternary complex, sequence (P40337 54-213): as the sequence (P40337 54-213) above
# VCB: PROTAC: SMARCA4^BD ternary complex, sequence (Q15369 17-112 partner): as the sequence (Q15369 17-112 partner) above
# VCB: PROTAC: SMARCA4^BD ternary complex, sequence (Q15370 1-104 partner): as the sequence (Q15370 1-104 partner) above
# T3 sequence (P51532 1448-1569): as the sequence (P51532 1448-1569) above
compound,measurement,setting,value
Cc1ncsc1-c1ccc(C(CCC(C)CCN2CCC(c3ccc4c(c3)n(C3CCCC3)c3nc(=O)c5c(Br)cccc5n43)CC2)NC(=O)C2CC(O)CN2C(=O)C(NC(=O)C2(F)CC2)C(C)(C)C)cc1 (stereo not shown) [ACBI2],EC50,"NCI-H1568 cells; Homo sapiens, NCI-H1568, assay not given, read-out: EC50",7 nM
same,EC50,"NCI-H1568 cells; Homo sapiens, NCI-H1568, read-out: LogEC50 (viability) (converted)",7.43 nM
same,EC50,"NCI-H1568 cells; Homo sapiens, NCI-H1568, values derived from curves in Extended Fig 4b, read-out: EC50 mean",7.43 nM
same,"Bottom (% Viability, four-parameter fit)",NCI-H1568 cells; NCI-H1568,1.886%
same,HillSlope (viability),NCI-H1568 cells; NCI-H1568,-1.08
same,"Top (% Viability, four-parameter fit)",NCI-H1568 cells; NCI-H1568,95.68%
same,IC50,"NCI-H1568 cells; NCI-H1568, (18h)",6.58 nM and 10.7 nM and 3.99 nM and 10.8 nM and 11.1 nM and 3.71 nM
same,% Viability,"NCI-H1568 cells; NCI-H1568, log10 conc -5 mol/l",-0.296% and -0.02611% and -0.1217% and 0.4768% and -0.2501%
same,% Viability,"NCI-H1568 cells; NCI-H1568, log10 conc -5.30103 mol/l",-0.06113% and -0.2267%
same,% Viability,"NCI-H1568 cells; NCI-H1568, log10 conc -5.50031 mol/l",0.1326% and 0.2417% and 0.02451% and 0.1536% and 0.8908%
same,% Viability,"NCI-H1568 cells; NCI-H1568, log10 conc -5.90309 mol/l",0.4837%
same,% Viability,"NCI-H1568 cells; NCI-H1568, log10 conc -6.50446 mol/l",2.441% and 0.7903%
same,% Viability,"NCI-H1568 cells; NCI-H1568, log10 conc -7.10735 mol/l",8.308% and 6.732%
same,% Viability,"NCI-H1568 cells; NCI-H1568, log10 conc -8.31158 mol/l",56.5669% and 89.3041%
same,% Viability,"NCI-H1568 cells; NCI-H1568, log10 conc -8.91364 mol/l",76.9492% and 107.085%
same,% Viability,"NCI-H1568 cells; NCI-H1568, log10 conc -9.5157 mol/l",76.1437% and 99.3609%
same,% Viability,"NCI-H1568 cells; NCI-H1568, log10 conc -10 mol/l",102.65% and 94.5594% and 117.406% and 60.7547% and 106.867%
same,% Viability,"NCI-H1568 cells; NCI-H1568, log10 conc -10.1175 mol/l",83.2326% and 93.6592%
same,% Viability,"NCI-H1568 cells; NCI-H1568, log10 conc -10.5003 mol/l",109.307% and 95.7558% and 110.528% and 76.6212%
same,EC50,[1]; [5],40 nM and 41.1 nM and 43.2 nM and 39.8 nM and 44 nM
same,EC50,[1]; [6],42 ± 2 nM
same,EC50,PBRM1BD5,67 ± 9 nM
same,EC50,[2]; [7],172 ± 109 nM
same,EC50,[2]; [8],94.6 nM and 127 nM and 166 nM and 204 nM and 373 nM
same,EC50,[3]; [9],314 ± 121 nM
same,EC50,[3]; [10],308 nM and 459 nM and 220 nM
same,DC50,SMARCA2; [11],3.55 nM and 1.63 nM and 1.77 nM and 3.45 nM and 4.01 nM and 4.03 nM and 3.11 nM
same,DC50,SMARCA2; [12],2 nM and 2.28 nM and 1.37 nM and 1.63 nM and 1.15 nM and 1.22 nM and 1.53 nM and 0.997 nM and 1.43 nM and 0.892 nM
same,EC50,"PBRM1 BD; PBRM1 EC50, binary, PROTAC alone",59.3 nM and 67.2 nM and 77.7 nM
same,EC50,"PBRM1 BD; Ternary PBRM1 BD EC50 (PROTAC + VCB), PROTAC + VCB",3.83 nM and 5.7 nM and 5.49 nM
same,EC50,[4]; [13],80.9 nM and 99.7 nM and 79.5 nM
same,EC50,[4]; [14],86 ± 11 nM
O=c1nc2n(C3CCCC3)c3ccccc3n2c2cccc(Br)c12 [compound 1],EC50,NCI-H1568 cells; [15],1100 nM
same,EC50,[1]; [5],381 nM and 365 nM and 425 nM
same,EC50,[1]; [6],389 ± 31 nM
same,EC50,PBRM1BD5; [16],134 ± 28 nM
same,EC50,[2]; [7],425 ± 11 nM
same,EC50,[2]; [8],413 nM and 429 nM and 435 nM
same,EC50,[3]; [9],857 ± 64 nM
same,EC50,[3]; [10],800 nM and 849 nM and 927 nM
same,DC50,SMARCA2; [11],> 25000 nM
same,DC50,SMARCA2; [12],> 25000 nM
same,EC50,PBRM1 BD; [17],129 nM and 124 nM and 140 nM
same,EC50,PBRM1 BD; [18],124 nM and 116 nM and 167 nM
same,EC50,[4]; [13],824 nM and 894 nM and 817 nM
same,EC50,[4]; [14],844 ± 42 nM
Nc1cccc2c1c(=O)nc1n(C3CCCC3)c3ccccc3n21 [compound 2],IC50,"NCI-H1568 cells; Homo sapiens, NCI-H1568, 18 h",> 10000 nM
same,EC50,NCI-H1568 cells; [15],> 10000 nM
same,EC50,[1]; [5],1910 nM and 2000 nM and 1540 nM and 2490 nM
same,EC50,[1]; [6],1950 nM
same,EC50,PBRM1BD5; [16],1000 nM
same,EC50,[2]; [7],1770 nM
same,EC50,[2]; [8],1620 nM and 1970 nM and 1530 nM and 2040 nM
same,EC50,[3]; [9],2400 nM
same,EC50,[3]; [10],2340 nM and 2880 nM and 2050 nM
same,DC50,SMARCA2; [11],> 25000 nM
same,DC50,SMARCA2; [12],> 25000 nM
same,EC50,PBRM1 BD; [17],934 nM and 1020 nM and 925 nM
same,EC50,PBRM1 BD; [18],1080 nM and 1000 nM and 929 nM
same,EC50,[4]; [13],2270 nM and 2610 nM and 2110 nM
same,EC50,[4]; [14],2320 nM
